Reference: patent US7795235B2, “Semi-soft c-class immunostimulatory oligonucleotides” (Coley Pharmaceutical GmbH, priority 2004, dated 2010)
Oligonucleotides are written 5' to 3', each unit as a sugar letter and its base; * is a phosphorothioate linkage, no mark a phosphodiester; rarer units and linkages stand in square brackets, end groups in braces. Plain capitals give the bases only. d = 2'-deoxy (DNA)

Key:
[1] = target: T1, human TLR9 (Homo sapiens, UniProt Q9NR96); assay: Stimulation of TLR9-transfected cells in vitro (luciferase readout); assay type: cell-based; settings: quotient between highest value of all concentrations tested and medium control
T1 construct: expressed in transfected cells; host or cells: HEK 293
T1 sequence (Q9NR96 26-1032): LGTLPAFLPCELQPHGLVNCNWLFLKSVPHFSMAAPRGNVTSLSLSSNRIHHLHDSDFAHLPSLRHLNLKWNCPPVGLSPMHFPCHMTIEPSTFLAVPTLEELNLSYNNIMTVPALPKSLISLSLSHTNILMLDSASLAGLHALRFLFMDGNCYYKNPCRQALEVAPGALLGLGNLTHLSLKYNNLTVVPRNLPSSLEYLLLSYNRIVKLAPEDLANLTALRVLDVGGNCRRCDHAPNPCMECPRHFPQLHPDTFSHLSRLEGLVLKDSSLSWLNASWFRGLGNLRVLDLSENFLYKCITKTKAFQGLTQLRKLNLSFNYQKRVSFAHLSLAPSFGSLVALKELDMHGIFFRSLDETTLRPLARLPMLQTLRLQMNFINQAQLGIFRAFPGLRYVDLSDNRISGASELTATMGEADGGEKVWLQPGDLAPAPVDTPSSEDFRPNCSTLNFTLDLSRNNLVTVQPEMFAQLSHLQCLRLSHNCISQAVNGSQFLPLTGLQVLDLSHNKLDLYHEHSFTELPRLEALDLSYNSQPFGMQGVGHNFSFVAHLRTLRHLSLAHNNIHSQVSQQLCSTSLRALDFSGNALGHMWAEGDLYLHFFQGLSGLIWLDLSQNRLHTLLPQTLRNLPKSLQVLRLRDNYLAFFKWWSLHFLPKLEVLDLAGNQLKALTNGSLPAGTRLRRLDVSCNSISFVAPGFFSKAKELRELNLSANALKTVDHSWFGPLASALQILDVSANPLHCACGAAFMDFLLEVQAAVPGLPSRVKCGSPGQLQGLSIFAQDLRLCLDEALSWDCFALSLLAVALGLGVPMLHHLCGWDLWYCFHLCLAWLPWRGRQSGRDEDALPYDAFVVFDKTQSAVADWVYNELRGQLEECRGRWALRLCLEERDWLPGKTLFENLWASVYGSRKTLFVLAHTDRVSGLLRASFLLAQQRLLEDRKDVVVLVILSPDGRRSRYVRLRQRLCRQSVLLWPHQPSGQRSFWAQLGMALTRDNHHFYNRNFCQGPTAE
Experimental: Methods: HEK 293 cells transfected with human TLR9 were incubated with SEQ ID NO:1, SEQ ID NO:2, SEQ ID NO:3, SEQ ID NO:4, SEQ ID NO:5, or SEQ ID NO:6 for 16 hours. The signal was determined by a luciferase readout.
The EC50 was calculated using Sigma Plot (SigmaPlot 2002 for Windows version 8.0). The maximal stimulation index (max SI) was calculated as the quotient between the highest value of all concentrations tested for any ODN and the medium control.

[2] = tested on: BALB/c mice; assay: Antigen-induced IgE and IgG2a production in the mouse; assay type: in vivo; settings: i.p. 1-1000 μg/kg, serum study day 18, FIG. 19
Experimental: Methods: Mice (male BALB/c) were sensitized on study days 0 and 7 with antigen (ovalbumin, 10 μg, i.p.) and aluminum hydroxide adjuvant Pierce Alum, i.p.). Mice received SEQ ID NO:2 or SEQ ID NO:7 on study days −2, 0, 5 and 7 (i.e. two days before each sensitization and on the day of sensitization). Mice were bled by cardiac puncture on study day 18. Serum was collected by centrifugation and assayed by ELISA for ovalbumin-specific IgE and IgG2a.

[3] = tested on: mouse splenocytes; assay: Cytokine secretion from mouse splenocytes by SEQ ID NO: 2 and fragments; assay type: cell-based; settings: 0.01-10 μg/ml, 36 hours, FIGS. 43-45
Experimental: Spleens were removed from 6 mice (male, BALB/c). The splenocytes from each spleen were separated by pushing gently through a cell sieve (70 μm pore size), and were then pooled. Splenocytes were added to wells of culture plates. 1×10^7 cells in a volume of 900 μl medium were added to each well. Medium was RPMI 1640 containing 10% fetal bovine serum. 100 μl aliquots of CpG ODN solutions in medium were added to each well to give final concentrations in the wells of 0.01-10 μg/ml. After incubation for 36 hours (37 C, 5% CO2 incubator), culture supernatants were collected and assayed for cytokine concentrations using either the Luminex multiplex assay (IFNγ, IP-10, IL-10, IL-6, TNFα) or ELISA (IFNα).
The aim of this study was to investigate the biological activity of selected fragments (putative metabolites) of SEQ ID NO: 2. Activity was determined by measuring the ability of each fragment to induce secretion of TLR9-associated cytokines from mouse splenocytes […].
Stimulation of cytokine secretion by fragments of SEQ ID NO.: 2 is shown in the attached FIGS. 43-45. The oligonucleotides examined are depicted in the Figures by SEQ ID NO and include SEQ ID NO: 15-23. The concentration of oligonucleotide used to produce a particular data point is depicted along the X-axis (μg/ml).

[4] = tested on: BALB/c mice; assay type: in vivo; settings: mouse
[5] = tested on: guinea pigs; assay: Guinea pig AHR protocol (airway resistance and lung compliance); assay type: in vivo; settings: guinea pigs, 10, 30, 100 or 300 μl/kg, i.t.
Experimental: Male guinea pigs were sensitized on study days 0 and 4 with antigen (ovalbumin, 0.5 ml, 1% OVA i.p./s.c.) with aluminum hydroxide adjuvant. Guinea pigs were antigen challenged by exposure to inhaled ovalbumin aerosol, twice each week for two consecutive weeks. The first challenge was on study day 13. CpG ODN or vehicle (saline, 20 μl) were administered intranasally once each week, two days before the first antigen challenge of the week. Airways hyperreactivity was assessed 24 hours after the last antigen challenge by measuring bronchoconstriction (increase in airway resistance) to intravenous methacholine. For each animal, a dose-response curve to methacholine was obtained, and airway reactivity was quantified as the area under the curve.
Method: Guinea pigs were sensitized as described in Example 10. The first challenge was on study day 13. Guinea pigs were given intranasally either carrier (saline), OVA alone, of concentrations of SEQ ID NO:7 of 10 μl/kg, 30 μl/kg, 100 μl/kg, or 300 μl/kg, i.t.
Method: Guinea pigs were sensitized as described in Example 10. The first challenge was on study day 13. Guinea pigs were given intranasally either carrier (saline), OVA alone, of concentrations of SEQ ID NO:2 of 10 μl/kg, 30 μl/kg, 100 μl/kg, or 300 μl/kg, i.t.

[6] = 100 μg/kg intranasal, both virus-infected and antigen-challenged

T*C_G*T*C_G*T*C_G*T*T*C_G*G*C*G*C_G*C*G*C*C*G (DNA dT*dCdG*dT*dCdG*dT*dCdG*dT*dT*dCdG*dG*dC*dG*dCdG*dC*dG*dC*dC*dG) [SEQ ID NO: 2, Semi-soft class C CpG ODN]
max SI (maximal stimulation index) [1]: 20 | production of antigen (ovalbumin)-specific IgE [2]: suppressed | production of antigen (ovalbumin)-specific IgG2a [2]: potentiated | induction of TLR9-associated cytokines IFNα, IFNγ, IP-0, IL-6, IL-10 and TNFα [3]: induced | antigen-induced eosinophilia ([4]; 100 μg/kg intranasal, antigen challenge alone, FIG. 20): significantly suppress | exacerbated accumulations of neutrophils and mononuclear cells [4, 6]: both suppressed | exacerbated airways inflammation [4, 6]: significantly suppressed | virus-induced neutrophilia ([4]; 100 μg/kg intranasal, virus infection alone, FIG. 20): did not suppress | loss of body weight ([4]; both virus-infected and antigen-challenged): significantly suppressed | AUC-resistance (airway reactivity, area under the dose-response curve) [5]: dose-dependent reduction
